Source: patent publication US9249125B2, “Pyrazole derivatives as p38 MAP inhibitors” (RESPIVERT LIMITED, priority 2012, dated 2016)

Legend:
[1] = system: LPS-induced TNFα release in d-U937 cells; assay: LPS-induced TNFα release in d-U937 cells; type: cell-based; settings: Homo sapiens, dU937, relative to 10 μg/mL BIRB796, read-out: LPS Induced Release of Cytokine in d-937 Cells TNFα REC50
Method in brief: (§1)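 First, U937 monocytes undergo PMA treatment (100 ng/mL) for 48 to 72 hr to become macrophage-type. Next, compound at final concentrations is added for 2 hr, followed by LPS at 0.1 μg/mL for 4 hr. Finally, cytokines in the supernatant are quantified by ELISA against vehicle-treated cells.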

d-U937 cells = assay: Cell viability: MTT assay; type: cell-based, human; settings: 1 μg/mL
Method in brief: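 Differentiated U937 cells were exposed to compound at 1 or 10 μg/mL either 4 h in 5% FCS RPMI1640 or 24 h in 10% FCS RPMI1640, then given MTT for 1 h, DMSO-solubilised and read at 550 nm. Percent viability loss versus 0.5% DMSO vehicle; apparent gains appear negative.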

[2] = system: LPS-induced IL-8 release in d-U937 cells; assay: LPS-induced IL-8 release in d-U937 cells; type: cell-based; settings: Homo sapiens, dU937, read-out: LPS Induced Release of Cytokine in d-937 Cells IL-8 IC50
Method in brief: as §1

p38 MAPKα = p38 MAPKα (Homo sapiens (Human), UniProt Q16539); assay: p38 MAPKα enzyme inhibition (FRET, Z-LYTE); type: biochemical
Sequence of p38 MAPKα (Q16539 whole entry): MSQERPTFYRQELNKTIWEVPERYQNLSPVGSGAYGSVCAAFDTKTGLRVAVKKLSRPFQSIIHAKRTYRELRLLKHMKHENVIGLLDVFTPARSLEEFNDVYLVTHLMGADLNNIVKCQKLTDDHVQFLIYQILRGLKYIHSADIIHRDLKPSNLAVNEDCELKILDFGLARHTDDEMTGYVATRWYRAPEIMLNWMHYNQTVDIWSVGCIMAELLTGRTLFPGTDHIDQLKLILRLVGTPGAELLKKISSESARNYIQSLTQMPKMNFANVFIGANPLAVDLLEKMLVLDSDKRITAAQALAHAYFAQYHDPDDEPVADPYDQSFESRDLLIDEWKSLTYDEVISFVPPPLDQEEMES

cSrc = cSrc (Homo sapiens (Human), UniProt P12931); assay: c-Src enzyme inhibition (FRET, Z-LYTE); type: biochemical
Sequence of cSrc (P12931 whole entry, looked up): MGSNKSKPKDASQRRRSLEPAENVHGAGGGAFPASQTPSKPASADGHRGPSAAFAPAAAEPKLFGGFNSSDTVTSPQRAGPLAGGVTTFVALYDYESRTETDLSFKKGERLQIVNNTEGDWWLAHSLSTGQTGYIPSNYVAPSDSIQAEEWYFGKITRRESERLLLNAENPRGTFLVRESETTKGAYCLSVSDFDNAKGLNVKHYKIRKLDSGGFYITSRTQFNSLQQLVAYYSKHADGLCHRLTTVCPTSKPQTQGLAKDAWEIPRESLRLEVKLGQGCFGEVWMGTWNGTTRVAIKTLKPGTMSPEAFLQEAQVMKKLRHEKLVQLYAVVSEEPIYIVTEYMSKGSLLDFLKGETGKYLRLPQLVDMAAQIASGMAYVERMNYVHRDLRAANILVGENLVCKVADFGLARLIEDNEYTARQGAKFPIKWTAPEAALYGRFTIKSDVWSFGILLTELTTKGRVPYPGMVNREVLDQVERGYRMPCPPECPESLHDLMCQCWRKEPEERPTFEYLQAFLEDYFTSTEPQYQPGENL
Method in brief: (§2)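 Z-LYTE FRET kinase assay: enzyme (3000 or 2000 ng/mL stock, respectively) preincubated 2 h at RT with compound (4–0.004 μg/mL stocks), then FRET peptide plus ATP (800 μM stock for c-Src, 60 μM for Syk) added for 1 h. Protease development 1 h; phosphorylation from coumarin/fluorescein emission ratio.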

[3] = system: Poly I:C-induced ICAM-1 expression in BEAS2B cells; assay: Poly I:C-induced ICAM-1 expression in BEAS2B cells; type: cell-based; settings: Homo sapiens, BEAS-2B, read-out: Poly IC induced ICAM1 in BEAS2B IC50
Method in brief: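 BEAS2B human bronchial epithelial cells pre-incubated with compound for 2 hr, then transfected with 1 μg/mL poly I:C plus Oligofectamine. At 18 hr, surface ICAM-1 measured by cell-based ELISA (HRP, OD450–655). Signal corrected for cell number by crystal violet OD595.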

Syk = Syk (Homo sapiens (Human), UniProt P43405); assay: Syk enzyme inhibition (FRET, Z-LYTE); type: biochemical
Method in brief: as §2

GSK3α = GSK3α (Homo sapiens (Human), UniProt P49840); assay: GSK 3α enzyme inhibition (FRET, Z-LYTE); type: biochemical
Sequence of GSK3α (P49840 whole entry): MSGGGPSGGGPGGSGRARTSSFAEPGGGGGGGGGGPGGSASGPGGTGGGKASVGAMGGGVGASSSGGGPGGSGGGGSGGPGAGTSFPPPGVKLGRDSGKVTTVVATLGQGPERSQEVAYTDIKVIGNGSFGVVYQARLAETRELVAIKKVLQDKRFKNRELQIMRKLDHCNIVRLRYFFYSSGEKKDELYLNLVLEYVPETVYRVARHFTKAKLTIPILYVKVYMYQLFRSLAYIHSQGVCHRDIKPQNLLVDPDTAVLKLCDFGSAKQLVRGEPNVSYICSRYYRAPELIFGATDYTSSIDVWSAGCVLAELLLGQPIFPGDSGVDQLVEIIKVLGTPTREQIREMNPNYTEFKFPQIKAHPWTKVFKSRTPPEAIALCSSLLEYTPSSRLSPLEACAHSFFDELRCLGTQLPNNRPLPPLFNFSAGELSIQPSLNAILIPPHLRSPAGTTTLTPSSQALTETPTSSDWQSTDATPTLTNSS
Method in brief: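 GSK3α (500 ng/mL stock) was preincubated 2 hr at RT with compound (4 to 0.004 μg/mL stocks), then FRET peptide (8 μM stock) and ATP (40 μM stock) added for 1 hr. Protease development for 1 hr cleaved unphosphorylated peptide; coumarin/fluorescein emission ratio reported phosphorylation.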

| Compound | EC50 [1] [nM] | MTT Assay Cell viability at time point in d-U937 cells 4 h (d-U937 cells) | MTT Assay Cell viability at time point in d-U937 cells 24 h (d-U937 cells) | IC50 [2] [nM] | IC50 (p38 MAPKα) [nM] | IC50 (cSrc) [nM] | IC50 [3] [nM] | IC50 (Syk) [nM] | IC50 (GSK3α) [nM] |
| --- | --- | --- | --- | --- | --- | --- | --- | --- | --- |
| COc1ccc(-n2nc(C(C)(C)C)cc2NC(=O)Nc2ccc(Oc3ccnc(Nc4ccc5[nH]ccc5c4)n3)c3ccccc23)cc1 [Example 38, 1-(4-((2-((1H-indol-5-yl)amino)pyrimidin-4-yl)oxy)naphthalen-1-yl)-3-(3-(tert-butyl)-1-(4-methoxyphenyl)-1H-pyrazol-5-yl)urea] | 1.8 | −ve (−ve and +ve indicate that the value is below and above respectively, the no significant effect threshold, defined as 30% inhibition at 1 μg/mL at the time point indicated.) | −ve (−ve and +ve indicate that the value is below and above respectively, the no significant effect threshold, defined as 30% inhibition at 1 μg/mL at the time point indicated.) | 1.1 | 184 | 10 | 2.5 | 26 | > 1560 |
| Cc1nc2cc(Nc3nccc(Oc4ccc(NC(=O)Nc5cc(C(C)(C)C)nn5-c5ccc(OCCN6CCOCC6)cc5)c5ccccc45)n3)ccc2[nH]1 [Example 75, 1-(3-(tert-butyl)-1-(4-(2-morpholinoethoxy)phenyl)-1H-pyrazol-5-yl)-3-(4-((2-((2-methyl-1H-benzo[d]imidazol-6-yl)amino)pyrimidin-4-yl)oxy)naphthalen-1-yl)urea] | 14.2 | −ve (−ve and +ve indicate that the value is below and above respectively, the no significant effect threshold, defined as 30% inhibition at 1 μg/mL at the time point indicated.) | −ve (−ve and +ve indicate that the value is below and above respectively, the no significant effect threshold, defined as 30% inhibition at 1 μg/mL at the time point indicated.) | 43.9 | 36 | < 1 | 16.3 | < 1 | 4950 |
| CC(C)(C)c1cc(NC(=O)Nc2ccc(Oc3ccnc(Nc4ccc5[nH]c(=O)oc5c4)n3)c3ccccc23)n(-c2ccc(OCCN3CCOCC3)cc2)n1 [Example 77, 1-(3-(tert-butyl)-1-(4-(2-morpholinoethoxy)phenyl)-1H-pyrazol-5-yl)-3-(4-((2-((2-oxo-2,3-dihydrobenzo[d]oxazol-6-yl)amino)pyrimidin-4-yl)oxy)naphthalen-1-yl)urea] | 3.5 | −ve (−ve and +ve indicate that the value is below and above respectively, the no significant effect threshold, defined as 30% inhibition at 1 μg/mL at the time point indicated.) | −ve (−ve and +ve indicate that the value is below and above respectively, the no significant effect threshold, defined as 30% inhibition at 1 μg/mL at the time point indicated.) | 3.1 | 417 | 27 | 8.6 | 93 | 2290 |
| COc1ccc(-n2nc(C(C)(C)C)cc2NC(=O)Nc2ccc(Oc3ccnc(Nc4ccc5[nH]nc(OCCN6CCOCC6)c5c4)n3)c3ccccc23)cc1 [Example 45, 1-(3-(tert-butyl)-1-(4-methoxyphenyl)-1H-pyrazol-5-yl)-3-(4-((2-((3-(2-morpholinoethoxy)-1H-indazol-5-yl)amino)pyrimidin-4-yl)oxy)naphthalen-1-yl)urea] | 0.9 | −ve (−ve and +ve indicate that the value is below and above respectively, the no significant effect threshold, defined as 30% inhibition at 1 μg/mL at the time point indicated.) | −ve (−ve and +ve indicate that the value is below and above respectively, the no significant effect threshold, defined as 30% inhibition at 1 μg/mL at the time point indicated.) | 1.6 | 17 | 5 | 1.2 | 3 | 407 |
| Cc1ccc(-n2nc(C(C)(C)C)cc2NC(=O)Nc2ccc(Oc3ccnc(Nc4cccc5[nH]ccc45)n3)c3ccccc23)cc1 [Example 16] | 2 | −ve (−ve and +ve indicate that the value is below and above respectively, the no significant effect threshold, defined as 30% inhibition at 1 μg/mL at the time point indicated.) | −ve (−ve and +ve indicate that the value is below and above respectively, the no significant effect threshold, defined as 30% inhibition at 1 μg/mL at the time point indicated.) | 2.6 | 101 | 22 | 8.9 | 65 | > 16100 |
| CC(C)(C)c1cc(NC(=O)Nc2ccc(Oc3ccnc(Nc4ccc5ncsc5c4)n3)c3ccccc23)n(-c2ccc(OCCN3CCOCC3)cc2)n1 [Example 80, 1-(4-((2-(benzo[d]thiazol-6-ylamino)pyrimidin-4-yl)oxy)naphthalen-1-yl)-3-(3-(tert-butyl)-1-(4-(2-morpholinoethoxy)phenyl)-1H-pyrazol-5-yl)urea] | 1.5 | −ve (−ve and +ve indicate that the value is below and above respectively, the no significant effect threshold, defined as 30% inhibition at 1 μg/mL at the time point indicated.) | −ve (−ve and +ve indicate that the value is below and above respectively, the no significant effect threshold, defined as 30% inhibition at 1 μg/mL at the time point indicated.) | 1.9 | 86 | 9 | 1.9 | 25 | 461 |
| CC(C)(C)c1cc(NC(=O)Nc2ccc(Oc3ccnc(Nc4ccc5c(c4)C(=O)NC5)n3)c3ccccc23)n(-c2ccc(OCCN3CCOCC3)cc2)n1 [Example 63, 1-(3-(tert-butyl)-1-(4-(2-morpholinoethoxy)phenyl)-1H-pyrazol-5-yl)-3-(4-((2-((3-oxoisoindolin-5-yl)amino)pyrimidin-4-yl)oxy)naphthalen-1-yl)urea] | 1.5 | −ve (−ve and +ve indicate that the value is below and above respectively, the no significant effect threshold, defined as 30% inhibition at 1 μg/mL at the time point indicated.) | −ve (−ve and +ve indicate that the value is below and above respectively, the no significant effect threshold, defined as 30% inhibition at 1 μg/mL at the time point indicated.) | 2.8 | 14 | < 1 | 0.3 | 10 | 184 |
| CC(C)(C)c1cc(NC(=O)Nc2ccc(Oc3ccnc(Nc4ccc5[nH]ccc5c4)n3)c3ccccc23)n(-c2cccc(CN3CCCC3=O)c2)n1 [Example 48, 1-(4-((2-((1H-indol-5-yl)amino)pyrimidin-4-yl)oxy)naphthalen-1-yl)-3-(3-(tert-butyl)-1-(3-((2-oxopyrrolidin-1-yl)methyl)phenyl)-1H-pyrazol-5-yl)urea] | 5.3 | −ve (−ve and +ve indicate that the value is below and above respectively, the no significant effect threshold, defined as 30% inhibition at 1 μg/mL at the time point indicated.) | −ve (−ve and +ve indicate that the value is below and above respectively, the no significant effect threshold, defined as 30% inhibition at 1 μg/mL at the time point indicated.) | 16.6 | 70 | 4 | 6.9 | 18 | > 1420 |
| CC(C)c1cc(NC(=O)Nc2ccc(Oc3ccnc(Nc4ccc5[nH]ncc5c4)n3)c3ccccc23)n(-c2ccc(=O)n(CCO)c2)n1 [Example 85, 1-(4-((2-((1H-indazol-5-yl)amino)pyrimidin-4-yl)oxy)naphthalen-1-yl)-3-(1-(1-(2-hydroxyethyl)-6-oxo-1,6-dihydropyridin-3-yl)-3-isopropyl-1H-pyrazol-5-yl)urea] | 19.7 | −ve (−ve and +ve indicate that the value is below and above respectively, the no significant effect threshold, defined as 30% inhibition at 1 μg/mL at the time point indicated.) | −ve (−ve and +ve indicate that the value is below and above respectively, the no significant effect threshold, defined as 30% inhibition at 1 μg/mL at the time point indicated.) | 54.4 | 8 | < 2 | 70.2 | 15 | 2530 |
